Tested on: replicon replication in VeroE6/Rep #3 cells
Assay type: cell-based, SARS-CoV-2
Conditions: 72 hours

CC(C)C(=O)OC[C@H]1O[C@@H](n2ccc(NO)nc2=O)[C@H](O)[C@@H]1O [EIDD-2801, molnupiravir]
effectiveness rate = (Replicon replication level)/(Cell survival rate): about 0.2 | luciferase activity (index of the replicon replication level) compared with DMSO negative control: significantly decreased

— US20220372448A1, “CELL LINE AND PRODUCING METHOD THEREOF” (University of Yamanashi, priority 2021, published 2022)
